Test results as given in the kinase profiling compilation of Christmann-Franck et al. (2016).

Key:
Test in all cases: radiometric filter-binding kinase assay
IKBKE (human) = IKBKE (human) (UniProt Q14164)
DYRK2 (human) = DYRK2 (human) (UniProt Q92630)
ERBB4 (human) = ERBB4 (human) (UniProt Q15303)
ROCK2 (rat) = conditions: accession and sequence are those of the human protein
HIPK2 (human) = HIPK2 (human) (UniProt Q9H2X6)
MAP2K6 (human) = MAP2K6 (human) (UniProt P52564)
CSNK2A1 (human) = CSNK2A1 (human) (UniProt P68400)
EPHB3 (human) = EPHB3 (human) (UniProt P54753)
Chain of EPHB3 (human) (P54753 whole entry, looked up): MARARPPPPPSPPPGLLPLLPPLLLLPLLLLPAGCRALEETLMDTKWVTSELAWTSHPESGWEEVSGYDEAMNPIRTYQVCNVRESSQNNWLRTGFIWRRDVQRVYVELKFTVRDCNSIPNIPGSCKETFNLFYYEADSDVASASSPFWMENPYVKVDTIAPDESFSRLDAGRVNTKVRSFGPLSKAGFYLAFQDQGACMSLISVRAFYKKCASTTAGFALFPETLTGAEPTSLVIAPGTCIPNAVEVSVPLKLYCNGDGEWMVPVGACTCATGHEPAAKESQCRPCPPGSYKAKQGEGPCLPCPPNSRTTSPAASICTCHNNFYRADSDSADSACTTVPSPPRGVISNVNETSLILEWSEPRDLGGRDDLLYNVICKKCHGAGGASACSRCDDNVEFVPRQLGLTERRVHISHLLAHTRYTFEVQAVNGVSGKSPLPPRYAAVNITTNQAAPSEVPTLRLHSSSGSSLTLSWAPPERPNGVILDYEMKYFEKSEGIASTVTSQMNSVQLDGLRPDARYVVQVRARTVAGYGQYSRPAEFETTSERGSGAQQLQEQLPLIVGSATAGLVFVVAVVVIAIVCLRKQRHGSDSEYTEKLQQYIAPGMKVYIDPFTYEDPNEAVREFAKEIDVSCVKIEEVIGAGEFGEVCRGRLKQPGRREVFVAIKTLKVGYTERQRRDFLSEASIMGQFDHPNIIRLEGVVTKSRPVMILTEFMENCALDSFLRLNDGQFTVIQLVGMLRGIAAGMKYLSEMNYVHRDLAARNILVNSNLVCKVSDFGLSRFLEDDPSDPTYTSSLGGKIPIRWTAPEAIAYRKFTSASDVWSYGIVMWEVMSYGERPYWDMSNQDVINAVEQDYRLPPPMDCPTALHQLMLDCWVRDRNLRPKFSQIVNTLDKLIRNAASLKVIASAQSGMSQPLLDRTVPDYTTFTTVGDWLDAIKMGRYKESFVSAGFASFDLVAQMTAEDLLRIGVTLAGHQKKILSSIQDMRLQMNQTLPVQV

DYRK1A (human) = DYRK1A (human) (UniProt Q13627)
EEF2K (human) = EEF2K (human) (UniProt O00418)
DAPK1 (human) = DAPK1 (human) (UniProt P53355)
MARK3 (human) = MARK3 (human) (UniProt P27448)
DYRK3 (human) = DYRK3 (human) (UniProt O43781)
Chain of DYRK3 (human) (O43781 whole entry, looked up): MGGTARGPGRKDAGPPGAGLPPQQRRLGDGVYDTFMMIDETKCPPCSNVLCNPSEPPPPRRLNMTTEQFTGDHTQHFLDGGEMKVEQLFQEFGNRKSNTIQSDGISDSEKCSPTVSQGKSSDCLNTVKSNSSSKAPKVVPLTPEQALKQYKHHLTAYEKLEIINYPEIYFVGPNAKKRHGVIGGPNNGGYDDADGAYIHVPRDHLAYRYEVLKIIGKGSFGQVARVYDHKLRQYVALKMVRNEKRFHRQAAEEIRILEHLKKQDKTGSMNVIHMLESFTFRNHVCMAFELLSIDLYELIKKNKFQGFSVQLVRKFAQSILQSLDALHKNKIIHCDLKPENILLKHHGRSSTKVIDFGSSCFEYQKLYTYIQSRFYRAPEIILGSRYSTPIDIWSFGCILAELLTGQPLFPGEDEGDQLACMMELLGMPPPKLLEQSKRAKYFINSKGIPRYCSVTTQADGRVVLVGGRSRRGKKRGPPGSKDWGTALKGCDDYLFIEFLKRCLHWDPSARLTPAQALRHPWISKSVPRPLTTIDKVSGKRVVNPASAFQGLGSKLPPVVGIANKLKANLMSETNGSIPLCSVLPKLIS

TAOK1 (human) = TAOK1 (human) (UniProt Q7L7X3)
HIPK1 (human) = HIPK1 (human) (UniProt Q86Z02)
MARK1 (human) = MARK1 (human) (UniProt Q9P0L2)
NUAK1 (human) = NUAK1 (human) (UniProt O60285)
RPS6KA5 KD1 KD2 (human) = RPS6KA5 KD1 KD2 (human) (UniProt O75582)
PAK4 (human) = PAK4 (human) (UniProt O96013)
MAPK14 (human) = MAPK14 (human) (UniProt Q16539)
MST4 (human) = MST4 (human) (UniProt Q9P289)
MAPK11 (human) = MAPK11 (human) (UniProt Q15759)
HIPK3 (human) = HIPK3 (human) (UniProt Q9H422)
CaMK1 (human) = CaMK1 (human) (UniProt Q14012)
Chain of CaMK1 (human) (Q14012 whole entry, looked up): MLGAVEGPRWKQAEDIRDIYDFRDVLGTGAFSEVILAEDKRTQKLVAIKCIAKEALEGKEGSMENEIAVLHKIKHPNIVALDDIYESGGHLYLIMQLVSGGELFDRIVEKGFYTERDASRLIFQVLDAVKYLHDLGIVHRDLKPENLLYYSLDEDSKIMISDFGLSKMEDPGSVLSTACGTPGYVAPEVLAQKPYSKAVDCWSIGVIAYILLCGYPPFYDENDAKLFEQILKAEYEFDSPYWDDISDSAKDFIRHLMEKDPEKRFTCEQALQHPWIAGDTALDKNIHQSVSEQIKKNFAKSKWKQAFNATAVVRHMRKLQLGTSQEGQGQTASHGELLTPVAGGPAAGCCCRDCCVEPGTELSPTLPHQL

EPHB1 (human) = EPHB1 (human) (UniProt P54762)
MAPK13 (human) = MAPK13 (human) (UniProt O15264)
EPHA2 (human) = EPHA2 (human) (UniProt P29317)
LCK (mouse) = conditions: accession and sequence are those of the human protein
PRKCZ (human) = PRKCZ (human) (UniProt Q05513)
MAPKAPK5 (human) = MAPKAPK5 (human) (UniProt Q8IW41)
Chain of MAPKAPK5 (human) (Q8IW41 whole entry, looked up): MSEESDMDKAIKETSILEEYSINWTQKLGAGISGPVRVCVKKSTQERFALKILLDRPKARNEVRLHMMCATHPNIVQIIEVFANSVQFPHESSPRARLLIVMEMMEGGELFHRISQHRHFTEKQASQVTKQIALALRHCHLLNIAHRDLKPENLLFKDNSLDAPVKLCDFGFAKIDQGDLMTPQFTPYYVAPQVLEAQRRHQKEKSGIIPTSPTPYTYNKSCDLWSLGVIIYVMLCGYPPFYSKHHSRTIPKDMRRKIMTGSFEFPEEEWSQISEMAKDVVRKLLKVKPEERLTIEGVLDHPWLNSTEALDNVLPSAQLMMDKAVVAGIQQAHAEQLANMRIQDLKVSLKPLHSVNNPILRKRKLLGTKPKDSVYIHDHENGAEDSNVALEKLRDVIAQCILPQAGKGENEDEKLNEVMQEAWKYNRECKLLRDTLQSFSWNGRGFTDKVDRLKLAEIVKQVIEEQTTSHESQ

PAK7 (human) = PAK7 (human) (UniProt Q9P286)
BTK (human) = BTK (human) (UniProt Q06187)
[1] = tested on: AKT1 (human), P31749 [S473D]
Chain of AKT1 (human), P31749 [S473D] (P31749 whole entry S473D, looked up): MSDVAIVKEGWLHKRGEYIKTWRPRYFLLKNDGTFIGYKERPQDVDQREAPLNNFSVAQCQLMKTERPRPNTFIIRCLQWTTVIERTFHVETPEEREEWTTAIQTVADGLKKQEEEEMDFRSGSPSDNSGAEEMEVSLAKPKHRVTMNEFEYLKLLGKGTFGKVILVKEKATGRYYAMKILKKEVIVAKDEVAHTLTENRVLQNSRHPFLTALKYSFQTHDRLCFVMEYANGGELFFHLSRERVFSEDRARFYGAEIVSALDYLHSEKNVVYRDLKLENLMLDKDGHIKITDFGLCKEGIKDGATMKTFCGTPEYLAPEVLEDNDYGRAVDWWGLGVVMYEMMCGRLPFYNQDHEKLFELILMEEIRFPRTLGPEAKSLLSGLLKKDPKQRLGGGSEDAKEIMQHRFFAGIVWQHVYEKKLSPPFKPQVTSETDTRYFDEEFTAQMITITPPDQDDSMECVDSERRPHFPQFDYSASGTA

MAP3K9 (human) = MAP3K9 (human) (UniProt P80192)
NEK6 (human) = NEK6 (human) (UniProt Q9HC98)
PAK6 (human) = PAK6 (human) (UniProt Q9NQU5)

Chain of IKBKE (human) (Q14164 whole entry, looked up): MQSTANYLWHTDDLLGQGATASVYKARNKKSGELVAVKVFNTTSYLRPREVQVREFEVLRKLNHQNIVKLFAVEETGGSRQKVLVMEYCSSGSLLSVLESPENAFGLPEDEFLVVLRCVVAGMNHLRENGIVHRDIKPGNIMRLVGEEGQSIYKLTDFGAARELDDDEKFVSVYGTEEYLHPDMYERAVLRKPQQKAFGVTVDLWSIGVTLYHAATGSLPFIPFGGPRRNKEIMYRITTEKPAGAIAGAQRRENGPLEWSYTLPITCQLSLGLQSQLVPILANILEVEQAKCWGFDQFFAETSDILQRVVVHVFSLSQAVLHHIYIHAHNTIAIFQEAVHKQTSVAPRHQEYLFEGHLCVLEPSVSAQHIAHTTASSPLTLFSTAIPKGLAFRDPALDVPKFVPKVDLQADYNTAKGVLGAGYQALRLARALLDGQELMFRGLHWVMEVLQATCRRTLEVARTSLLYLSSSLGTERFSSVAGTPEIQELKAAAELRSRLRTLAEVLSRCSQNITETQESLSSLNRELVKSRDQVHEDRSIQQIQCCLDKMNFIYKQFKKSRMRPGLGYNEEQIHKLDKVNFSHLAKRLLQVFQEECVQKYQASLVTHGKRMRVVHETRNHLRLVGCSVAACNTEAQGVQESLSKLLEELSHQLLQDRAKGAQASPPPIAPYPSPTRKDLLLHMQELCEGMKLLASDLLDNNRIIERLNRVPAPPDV
Chain of HIPK2 (human) (Q9H2X6 whole entry, looked up): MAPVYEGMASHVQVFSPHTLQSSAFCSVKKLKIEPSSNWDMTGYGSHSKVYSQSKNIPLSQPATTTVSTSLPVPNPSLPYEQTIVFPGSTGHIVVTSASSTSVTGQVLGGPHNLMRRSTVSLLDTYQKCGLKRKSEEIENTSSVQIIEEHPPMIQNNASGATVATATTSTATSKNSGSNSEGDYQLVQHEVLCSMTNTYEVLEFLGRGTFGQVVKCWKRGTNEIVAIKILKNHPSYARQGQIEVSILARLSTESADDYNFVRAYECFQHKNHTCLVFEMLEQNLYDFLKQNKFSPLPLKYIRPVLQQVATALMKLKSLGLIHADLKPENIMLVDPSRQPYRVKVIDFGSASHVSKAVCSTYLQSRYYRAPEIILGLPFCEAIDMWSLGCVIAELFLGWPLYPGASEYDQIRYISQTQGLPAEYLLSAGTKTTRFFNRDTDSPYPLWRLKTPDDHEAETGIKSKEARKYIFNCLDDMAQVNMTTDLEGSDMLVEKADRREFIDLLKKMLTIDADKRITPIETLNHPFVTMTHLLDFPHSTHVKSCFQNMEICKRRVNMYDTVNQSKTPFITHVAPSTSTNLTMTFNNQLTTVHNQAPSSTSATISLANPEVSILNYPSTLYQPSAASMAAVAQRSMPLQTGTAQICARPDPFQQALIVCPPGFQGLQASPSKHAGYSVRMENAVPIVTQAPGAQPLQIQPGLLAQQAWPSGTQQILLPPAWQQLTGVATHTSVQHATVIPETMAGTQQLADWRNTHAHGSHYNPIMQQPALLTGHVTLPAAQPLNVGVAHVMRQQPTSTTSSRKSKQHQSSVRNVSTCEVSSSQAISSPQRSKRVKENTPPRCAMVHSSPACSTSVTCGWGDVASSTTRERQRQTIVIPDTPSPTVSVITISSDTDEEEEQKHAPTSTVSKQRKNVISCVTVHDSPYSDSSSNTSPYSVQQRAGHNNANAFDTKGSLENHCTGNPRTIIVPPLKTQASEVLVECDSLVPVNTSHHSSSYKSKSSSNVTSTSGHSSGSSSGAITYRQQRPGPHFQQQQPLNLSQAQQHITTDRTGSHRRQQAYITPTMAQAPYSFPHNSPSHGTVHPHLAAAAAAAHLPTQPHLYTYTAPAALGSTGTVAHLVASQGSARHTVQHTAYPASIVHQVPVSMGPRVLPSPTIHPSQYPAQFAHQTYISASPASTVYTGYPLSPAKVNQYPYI

O=c1c(O)c(-c2ccc(O)c(O)c2)oc2cc(O)c(O)c(O)c12
residual activity (IKBKE (human); compound 1.0 µM): 69%
residual activity (IKBKE (human); compound 10.0 µM): 21%
residual activity (DYRK2 (human); compound 1.0 µM): 45%
residual activity (DYRK2 (human); compound 10.0 µM): 1%
residual activity (ERBB4 (human); compound 1.0 µM): 109%
residual activity (ERBB4 (human); compound 10.0 µM): 44%
residual activity (ROCK2 (rat); compound 1.0 µM): 95%
residual activity (ROCK2 (rat); compound 10.0 µM): 56%
residual activity (HIPK2 (human); compound 1.0 µM): 62%
residual activity (HIPK2 (human); compound 10.0 µM): 19%
residual activity (MAP2K6 (human); compound 1.0 µM): 102%
residual activity (CSNK2A1 (human); compound 1.0 µM): 46%
residual activity (CSNK2A1 (human); compound 10.0 µM): 7%
residual activity (EPHB3 (human); compound 1.0 µM): 93%
residual activity (EPHB3 (human); compound 10.0 µM): 61%
residual activity (DYRK1A (human); compound 1.0 µM): 71%
residual activity (DYRK1A (human); compound 10.0 µM): 3%
residual activity (EEF2K (human); compound 1.0 µM): 110%
residual activity (EEF2K (human); compound 10.0 µM): 109%
residual activity (DAPK1 (human); compound 1.0 µM): 95%
residual activity (MARK3 (human); compound 1.0 µM): 51%
residual activity (MARK3 (human); compound 10.0 µM): 6%
residual activity (DYRK3 (human); compound 1.0 µM): 59%
residual activity (DYRK3 (human); compound 10.0 µM): 2%
residual activity (TAOK1 (human); compound 1.0 µM): 94%
residual activity (HIPK1 (human); compound 1.0 µM): 93%
residual activity (HIPK1 (human); compound 10.0 µM): 11%
residual activity (MARK1 (human); compound 1.0 µM): 40%
residual activity (MARK1 (human); compound 10.0 µM): 11%
residual activity (NUAK1 (human); compound 1.0 µM): 33%
residual activity (NUAK1 (human); compound 10.0 µM): 12%
residual activity (RPS6KA5 KD1 KD2 (human); compound 1.0 µM): 88%
residual activity (RPS6KA5 KD1 KD2 (human); compound 10.0 µM): 38%
residual activity (PAK4 (human); compound 1.0 µM): 50%
residual activity (PAK4 (human); compound 10.0 µM): 38%
residual activity (MAPK14 (human); compound 1.0 µM): 100%
residual activity (MAPK14 (human); compound 10.0 µM): 119%
residual activity (MST4 (human); compound 1.0 µM): 87%
residual activity (MST4 (human); compound 10.0 µM): 58%
residual activity (MAPK11 (human); compound 1.0 µM): 101%
residual activity (MAPK11 (human); compound 10.0 µM): 90%
residual activity (HIPK3 (human); compound 1.0 µM): 88%
residual activity (HIPK3 (human); compound 10.0 µM): 55%
residual activity (CaMK1 (human); compound 1.0 µM): 49%
residual activity (CaMK1 (human); compound 10.0 µM): 19%
residual activity (EPHB1 (human); compound 1.0 µM): 85%
residual activity (MAPK13 (human); compound 1.0 µM): 96%
residual activity (MAPK13 (human); compound 10.0 µM): 97%
residual activity (EPHA2 (human); compound 1.0 µM): 94%
residual activity (EPHA2 (human); compound 10.0 µM): 73%
residual activity (LCK (mouse); compound 1.0 µM): 102%
residual activity (LCK (mouse); compound 10.0 µM): 95%
residual activity (PRKCZ (human); compound 1.0 µM): 62%
residual activity (PRKCZ (human); compound 10.0 µM): 20%
residual activity (MAPKAPK5 (human); compound 1.0 µM): 87%
residual activity (MAPKAPK5 (human); compound 10.0 µM): 1%
residual activity (PAK7 (human); compound 1.0 µM): 67%
residual activity (PAK7 (human); compound 10.0 µM): 55%
residual activity (BTK (human); compound 1.0 µM): 61%
residual activity (BTK (human); compound 10.0 µM): 32%
residual activity ([1]; compound 1.0 µM): 106%
residual activity ([1]; compound 10.0 µM): 99%
residual activity (MAP3K9 (human); compound 1.0 µM): 100%
residual activity (MAP3K9 (human); compound 10.0 µM): 24%
residual activity (NEK6 (human); compound 1.0 µM): 99%
residual activity (NEK6 (human); compound 10.0 µM): 21%
residual activity (PAK6 (human); compound 1.0 µM): 58%
residual activity (PAK6 (human); compound 10.0 µM): 60%

COc1cc2ncn(-c3cc(OCc4ccccc4S(C)(=O)=O)c(C#N)s3)c2cc1OC
residual activity (IKBKE (human); compound 1.0 µM): 9%
residual activity (IKBKE (human); compound 10.0 µM): 6%
residual activity (DYRK2 (human); compound 1.0 µM): 84%
residual activity (DYRK2 (human); compound 10.0 µM): 72%
residual activity (ERBB4 (human); compound 1.0 µM): 78%
residual activity (ERBB4 (human); compound 10.0 µM): 84%
residual activity (ROCK2 (rat); compound 1.0 µM): 93%
residual activity (ROCK2 (rat); compound 10.0 µM): 61%
residual activity (HIPK2 (human); compound 1.0 µM): 49%
residual activity (HIPK2 (human); compound 10.0 µM): 32%
residual activity (MAP2K6 (human); compound 1.0 µM): 91%
residual activity (MAP2K6 (human); compound 10.0 µM): 84%
residual activity (CSNK2A1 (human); compound 1.0 µM): 118%
residual activity (CSNK2A1 (human); compound 10.0 µM): 107%
residual activity (EPHB3 (human); compound 1.0 µM): 40%
residual activity (EPHB3 (human); compound 10.0 µM): 27%
residual activity (DYRK1A (human); compound 1.0 µM): 73%
residual activity (DYRK1A (human); compound 10.0 µM): 81%
residual activity (EEF2K (human); compound 1.0 µM): 105%
residual activity (EEF2K (human); compound 10.0 µM): 98%
residual activity (DAPK1 (human); compound 1.0 µM): 54%
residual activity (DAPK1 (human); compound 10.0 µM): 51%
residual activity (MARK3 (human); compound 1.0 µM): 31%
residual activity (MARK3 (human); compound 10.0 µM): 41%
residual activity (DYRK3 (human); compound 1.0 µM): 75%
residual activity (DYRK3 (human); compound 10.0 µM): 82%
residual activity (TAOK1 (human); compound 1.0 µM): 61%
residual activity (TAOK1 (human); compound 10.0 µM): 27%
residual activity (HIPK1 (human); compound 10.0 µM): 58%
residual activity (MARK1 (human); compound 1.0 µM): 33%
residual activity (MARK1 (human); compound 10.0 µM): 31%
residual activity (NUAK1 (human); compound 1.0 µM): 35%
residual activity (NUAK1 (human); compound 10.0 µM): 35%
residual activity (RPS6KA5 KD1 KD2 (human); compound 1.0 µM): 78%
residual activity (RPS6KA5 KD1 KD2 (human); compound 10.0 µM): 58%
residual activity (PAK4 (human); compound 1.0 µM): 53%
residual activity (PAK4 (human); compound 10.0 µM): 41%
residual activity (MAPK14 (human); compound 1.0 µM): 91%
residual activity (MAPK14 (human); compound 10.0 µM): 85%
residual activity (MST4 (human); compound 10.0 µM): 47%
residual activity (MAPK11 (human); compound 1.0 µM): 103%
residual activity (HIPK3 (human); compound 1.0 µM): 102%
residual activity (HIPK3 (human); compound 10.0 µM): 61%
residual activity (CaMK1 (human); compound 1.0 µM): 90%
residual activity (CaMK1 (human); compound 10.0 µM): 80%
residual activity (EPHB1 (human); compound 1.0 µM): 79%
residual activity (EPHB1 (human); compound 10.0 µM): 95%
residual activity (MAPK13 (human); compound 1.0 µM): 112%
residual activity (MAPK13 (human); compound 10.0 µM): 86%
residual activity (EPHA2 (human); compound 1.0 µM): 66%
residual activity (EPHA2 (human); compound 10.0 µM): 53%
residual activity (LCK (mouse); compound 1.0 µM): 35%
residual activity (LCK (mouse); compound 10.0 µM): 33%
residual activity (PRKCZ (human); compound 1.0 µM): 97%
residual activity (PRKCZ (human); compound 10.0 µM): 95%
residual activity (MAPKAPK5 (human); compound 1.0 µM): 101%
residual activity (PAK7 (human); compound 1.0 µM): 80%
residual activity (PAK7 (human); compound 10.0 µM): 58%
residual activity (BTK (human); compound 1.0 µM): 63%
residual activity (BTK (human); compound 10.0 µM): 45%
residual activity ([1]; compound 1.0 µM): 98%
residual activity ([1]; compound 10.0 µM): 85%
residual activity (MAP3K9 (human); compound 1.0 µM): 28%
residual activity (MAP3K9 (human); compound 10.0 µM): 8%
residual activity (NEK6 (human); compound 1.0 µM): 93%
residual activity (NEK6 (human); compound 10.0 µM): 77%
residual activity (PAK6 (human); compound 1.0 µM): 95%
residual activity (PAK6 (human); compound 10.0 µM): 67%
